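A five-concentration, 48-hour dose response in 96-well plates underlies each endpoint, interpolated linearly between surrounding concentrations. GI50 = concentration required for 50% inhibition of growth. At the TGI there is no net growth.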
Assays:
Test in all cases: NCI anticancer screen, dose series, 48 h
BT-549 breast = system: BT-549 breast
SW-620 colon = system: SW-620 colon
K-562 leukemia = system: K-562 leukemia
MCF7 breast = system: MCF7 breast
RPMI-8226 leukemia = system: RPMI-8226 leukemia
SK-OV-3 ovarian = system: SK-OV-3 ovarian
NCI-H460 lung = system: NCI-H460 lung
NCI/ADR-RES ovarian = system: NCI/ADR-RES ovarian
NCI-H23 lung = system: NCI-H23 lung
SK-MEL-2 melanoma = system: SK-MEL-2 melanoma
MOLT-4 leukemia = system: MOLT-4 leukemia
UO-31 renal = system: UO-31 renal
IGROV1 ovarian = system: IGROV1 ovarian
DU-145 prostate = system: DU-145 prostate
OVCAR-5 ovarian = system: OVCAR-5 ovarian
NCI-H522 lung = system: NCI-H522 lung
SK-MEL-5 melanoma = system: SK-MEL-5 melanoma
COLO 205 colon = system: COLO 205 colon
OVCAR-4 ovarian = system: OVCAR-4 ovarian
TK-10 renal = system: TK-10 renal
EKVX NSCLC = system: EKVX NSCLC
NCI-H226 lung = system: NCI-H226 lung
UACC-62 melanoma = system: UACC-62 melanoma
786-0 renal = system: 786-0 renal
SNB-19 CNS = system: SNB-19 CNS
HS 578T breast = system: HS 578T breast
SF-268 CNS = system: SF-268 CNS
MDA-MB-435 = system: MDA-MB-435
SF-539 CNS = system: SF-539 CNS
M14 melanoma = system: M14 melanoma
HCC-2998 colon = system: HCC-2998 colon
MDA-MB-231 breast = system: MDA-MB-231 breast
SK-MEL-28 melanoma = system: SK-MEL-28 melanoma
SN12C renal = system: SN12C renal
PC-3 prostate = system: PC-3 prostate
A549 NSCLC = system: A549 NSCLC
U251 CNS = system: U251 CNS
HOP-92 NSCLC = system: HOP-92 NSCLC
SNB-75 CNS = system: SNB-75 CNS
HCT-116 colon = system: HCT-116 colon
UACC-257 melanoma = system: UACC-257 melanoma
ACHN renal = system: ACHN renal
MALME-3M melanoma = system: MALME-3M melanoma
T-47D breast = system: T-47D breast
HT29 colon = system: HT29 colon
HCT-15 colon = system: HCT-15 colon
SF-295 CNS = system: SF-295 CNS
CAKI-1 renal = system: CAKI-1 renal

## CO/N=C(\C)c1ccc(Nc2cc(-c3ccccc3)nc3ccc(OC)cc23)cc1
BT-549 breast
  GI50: 5.61 µM
  TGI: 21.4 µM
SW-620 colon
  GI50: 3.4 µM
  TGI: 11.9 µM
K-562 leukemia
  GI50: 5.42 µM
  TGI: > 100 µM
MCF7 breast
  GI50: 5.01 µM
  TGI: 24.4 µM
RPMI-8226 leukemia
  GI50: 2790 nM
  TGI: 9.64 µM
SK-OV-3 ovarian
  GI50: 15.2 µM
  TGI: 60.4 µM
NCI-H460 lung
  GI50: 6.69 µM
  TGI: > 100 µM
NCI/ADR-RES ovarian
  GI50: 2610 nM
  TGI: 11.2 µM
NCI-H23 lung
  GI50: 2520 nM
  TGI: 10.3 µM
SK-MEL-2 melanoma
  GI50: 6.27 µM
  TGI: > 100 µM
MOLT-4 leukemia
  GI50: 3.38 µM
  TGI: 25.2 µM
UO-31 renal
  GI50: 5.19 µM
  TGI: > 100 µM
IGROV1 ovarian
  GI50: 4.56 µM
  TGI: > 100 µM
DU-145 prostate
  GI50: 5.36 µM
  TGI: 21.3 µM
OVCAR-5 ovarian
  GI50: 5.2 µM
  TGI: 40.3 µM
NCI-H522 lung
  GI50: 4.4 µM
  TGI: > 100 µM
SK-MEL-5 melanoma
  GI50: 1770 nM
  TGI: 3.31 µM
COLO 205 colon
  GI50: 7.02 µM
  TGI: > 100 µM
OVCAR-4 ovarian
  GI50: 7.81 µM
  TGI: > 100 µM
TK-10 renal
  GI50: 2520 nM
  TGI: 6.85 µM
EKVX NSCLC
  GI50: 3.27 µM
  TGI: 8.53 µM
NCI-H226 lung
  GI50: 2250 nM
  TGI: 5.63 µM
UACC-62 melanoma
  GI50: 1970 nM
  TGI: 4.41 µM
786-0 renal
  GI50: 2170 nM
  TGI: 4.5 µM
SNB-19 CNS
  GI50: 5.97 µM
  TGI: > 100 µM
HS 578T breast
  GI50: 3.5 µM
  TGI: 9.44 µM
SF-268 CNS
  GI50: 10.2 µM
  TGI: 28.8 µM
MDA-MB-435
  GI50: 1760 nM
  TGI: 3.46 µM
SF-539 CNS
  GI50: 2720 nM
  TGI: 4.74 µM
M14 melanoma
  GI50: 2350 nM
  TGI: 4.77 µM
HCC-2998 colon
  GI50: 3.16 µM
  TGI: 15.9 µM
MDA-MB-231 breast
  GI50: 1230 nM
  TGI: 3.24 µM
SK-MEL-28 melanoma
  GI50: 29.4 µM
  TGI: > 100 µM
SN12C renal
  GI50: 1700 nM
  TGI: 4.11 µM
PC-3 prostate
  GI50: 4.17 µM
  TGI: 16.2 µM
A549 NSCLC
  GI50: 4.28 µM
  TGI: 70.2 µM
U251 CNS
  GI50: 2050 nM
  TGI: 4.79 µM
HOP-92 NSCLC
  GI50: 2140 nM
  TGI: 6.77 µM
SNB-75 CNS
  GI50: 23 µM
  TGI: > 100 µM
HCT-116 colon
  GI50: 1760 nM
  TGI: 3.77 µM
UACC-257 melanoma
  GI50: 4.64 µM
  TGI: > 100 µM
ACHN renal
  GI50: 3.27 µM
  TGI: 12.5 µM
MALME-3M melanoma
  GI50: 1780 nM
  TGI: 4.85 µM
T-47D breast
  GI50: 33.7 µM
  TGI: > 100 µM
HT29 colon
  GI50: 5.33 µM
  TGI: > 100 µM
HCT-15 colon
  GI50: 3.17 µM
  TGI: 11 µM
SF-295 CNS
  GI50: 2020 nM
  TGI: 4.82 µM
CAKI-1 renal
  GI50: 2050 nM
  TGI: 5.16 µM

— PubChem BioAssay (NCI)
